Data: ChEMBL document CHEMBL1155818, “Uredinorubellins and caeruleoramularin, photodynamically active anthraquinone derivatives produced by two species of the genus ramularia” (J Nat Prod, 2008)
Active and inactive are the calls of the source. The calls are words filed in the database; no cut-off is given here.

Experiments:
[1] = system: HT-29; assay: Reduction of cell viability in human HT29 cells at 10 uM followed by illumination at 2.5 W/cm'2 cold light for 40 seconds by XTT assay; format: functional, cell-based
[2] = system: HT-29; assay: Reduction of cell viability in human HT29 cells at 2 uM followed by illumination at 2.5 W/cm'2 cold light for 40 seconds by XTT assay; format: functional, cell-based
[3] = system: Pseudomonas aeruginosa; assay: Antimicrobial activity against […] Pseudomonas aeruginosa DSM1117 on exposure to 2.5 W/cm'2 cold light for 40 secs at 1 to 100 uM; format: functional, organism-based
[4] = system: J774.A1; assay: Reduction of cell viability in mouse J774A.1 cells at 2 uM followed by illumination at 2.5 W/cm'2 cold light for 40 seconds by XTT assay; format: functional, cell-based
[5] = species on record: Oryctolagus cuniculus; assay: Reduction of cell viability in rabbit HIG82 cells at 2 uM followed by illumination at 2.5 W/cm'2 cold light for 40 seconds by XTT assay; format: functional, cell-based
[6] = system: J774.A1; assay: Reduction of cell viability in mouse J774A.1 cells at 10 uM followed by illumination at 2.5 W/cm'2 cold light for 40 seconds by XTT assay; format: functional, cell-based
[7] = species on record: Oryctolagus cuniculus; assay: Reduction of cell viability in rabbit HIG82 cells at 10 uM followed by illumination at 2.5 W/cm'2 cold light for 40 seconds by XTT assay; format: functional, cell-based

Row | Compound | Activity [1] | Activity [2] | Activity [3] | Activity [4] | Activity [5] | Activity [6] | Activity [7]
1 | Cc1cc(O)c2c(c1)[C@H](O)[C@]13Cc4cc(O)c5c(c4[C@H]1C=C[C@@H](O)[C@@]3(O)C2=O)C(=O)c1c(O)ccc(O)c1C5=O | Active | Active | inactive | – | – | – | –
2 | Cc1cc(O)c2c(c1)C(=O)c1cccc(O)c1C2=O | – | – | inactive | inactive | inactive | – | –
3 | Cc1cc(O)c2c(c1)[C@H](O)[C@]13Cc4cc(O)c5c(c4[C@H]1C=C[C@@H](O)[C@H]3OC2=O)C=C1C(=O)C=CC(O)=C1C5=O | – | – | inactive | inactive | inactive | – | –
4 | Cc1cc(O)c2c(c1)[C@H](O)[C@]13Cc4cc(O)c5c(c4[C@H]1C=C[C@@H](O)[C@@]3(O)C2=O)C(=O)c1cccc(O)c1C5=O | – | – | inactive | Active | Active | Active | Active
